In US20260200892A1, “CANNABINOID RECEPTOR 2 MODULATORS” (Hoffmann-La Roche Inc., priority 2023, published 2026):

Legend:
[1] = target: T1, human CB2 receptor (hCB2R) (Homo sapiens, UniProt P34972); assay: TR-FRET hCB2R binding assay; settings: TR-FRET, membranes of SNAP-tagged human CB2R HEK293-TR cells, 100 μM GppNHp, nonspecific binding with SR144528; read-out: Kd hCB2R
T1 construct: expressed in transfected cells; membranes

[2] = target: T2, CB2 receptor (hCB2R), CHO cell line stably overexpressing CB2 receptor (Homo sapiens, UniProt P34972); assay: cAMP hCB2R functional assay (HTRF); type: cell-based; settings: CHO cells overexpressing CB2 receptor, forskolin; for EC50: means ± SEM of 2-3 independent experiments; for Functionality: normalized to Emax of CP55940 (100%)
T2 construct: expressed in transfected cells; host or cells: CHO cell line stably overexpressing CB2 receptor (G418 selection)
T2 sequence (P34972 whole entry): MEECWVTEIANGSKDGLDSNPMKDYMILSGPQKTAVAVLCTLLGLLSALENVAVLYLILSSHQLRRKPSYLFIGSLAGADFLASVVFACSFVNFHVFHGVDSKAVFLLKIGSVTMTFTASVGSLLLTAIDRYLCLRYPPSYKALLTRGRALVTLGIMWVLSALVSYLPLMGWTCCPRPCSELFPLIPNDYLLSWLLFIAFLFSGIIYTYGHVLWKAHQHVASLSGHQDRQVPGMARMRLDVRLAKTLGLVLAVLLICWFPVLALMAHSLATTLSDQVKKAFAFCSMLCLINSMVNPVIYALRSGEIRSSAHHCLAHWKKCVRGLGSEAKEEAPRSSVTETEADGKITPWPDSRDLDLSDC
Procedure: cAMP hCB2R Functional Assay
The Homogeneous Time Resolved Fluorescence (HTRF) Assays
The homogeneous time-resolved fluorescence (HTRF) cAMP assay was conducted according to the manufacturer's protocol for the cAMP-Gs Dynamic kit (Cisbio). Briefly, the CHO cell line stably overexpressing CB2 receptor were maintained in Ham's F12 supplemented with 10% FBS, 100 U/ml penicillin and 100 μg/ml streptomycin (Gibco-ThermoFisher) and 400 μg/ml G418 (ThermoFisher). For CB2 compounds test, harvest the cells with Cell Dissociation Buffer and re-suspend the cells in F-12 K at 0.4*10^6 cells/mL, and dispense cells into 384-well low volume plates at 2000 cells/5 μL per well. The cells were stimulated with compounds diluted in Stimulation Buffer (2.5 μL/well) for 15 min at room temperature. And then followed by the addition of 2.5 μL 25 μM forsklin. After 15 mins incubation, reactions were stopped by 5 μL/well cAMP-d2 conjugate working solution followed by 5 μL/well of anti-cAMP cryptate working solution. After incubation for 1 h at room temperature, the plates were read in a PerkinElmer Envision reader for time-resolved fluorescence resonance energy transfer detection at 620 nm and 665 nm.
Quantification and Statistical Analysis
All HTRF ratio data sets of test compounds were normalized to the Emax of CP55940 (100%) and obtained the means±standard error of the mean (SEM) of 2-3 independent experiments performed in technical replicates.

hCB1R = hCB1R (Homo sapiens, UniProt P21554); assay: hCB1R binding (Kd hCB1R, Table 1)
Sequence of hCB1R (P21554 whole entry): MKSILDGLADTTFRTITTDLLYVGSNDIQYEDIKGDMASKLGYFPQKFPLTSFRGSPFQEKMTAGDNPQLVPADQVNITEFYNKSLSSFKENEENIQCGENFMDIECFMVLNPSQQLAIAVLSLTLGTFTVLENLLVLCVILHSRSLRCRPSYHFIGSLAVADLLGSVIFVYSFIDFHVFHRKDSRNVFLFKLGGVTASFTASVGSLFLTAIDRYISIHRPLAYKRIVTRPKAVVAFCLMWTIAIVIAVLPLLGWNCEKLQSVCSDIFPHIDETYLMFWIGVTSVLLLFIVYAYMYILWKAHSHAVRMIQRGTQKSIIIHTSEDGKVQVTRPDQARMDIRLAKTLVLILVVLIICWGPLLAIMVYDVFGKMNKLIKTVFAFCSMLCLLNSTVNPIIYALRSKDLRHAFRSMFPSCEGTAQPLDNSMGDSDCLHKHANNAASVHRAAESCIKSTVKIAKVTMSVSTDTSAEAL

T1 sequence (P34972 whole entry): as the sequence (P34972 whole entry) above

SMILES | Kd [1] [nM] | EC50 [2] [nM] | Functionality [2] | Kd (hCB1R) [nM]
CCCCC[C@H](C(F)(F)F)C(C)(C)c1cc(OC)c([C@H]2C=C(CO)[C@H]3C[C@@H]2C3(C)C)c(OC)c1 [Example 2, ((1S,4S,5S)-4-(2,6-dimethoxy-4-((S)-2-methyl-3-(trifluoromethyl)octan-2-yl)phenyl)-6,6-dimethylbicyclo[3.1.1]hept-2-en-2-yl)methanol] | 9.9 | 11.7 | agonist | 6530
CCCCCC(CC)C(C)(C)c1cc(OC)c([C@H]2C=C(CO)[C@H]3C[C@@H]2C3(C)C)c(OC)c1 (stereo partly drawn) [Example 3, ((1S,4S,5S)-4-(4-(3-ethyl-2-methyloctan-2-yl)-2,6-dimethoxyphenyl)-6,6-dimethylbicyclo[3.1.1]hept-2-en-2-yl)methanol] | 0.56 | 100 | partial agonist | 13000
CCCCCC(CCC)C(C)(C)c1cc(OC)c([C@H]2C=C(CO)[C@H]3C[C@@H]2C3(C)C)c(OC)c1 (stereo partly drawn) [Example 5, ((1S,4S,5S)-4-(2,6-dimethoxy-4-(2-methyl-3-propyloctan-2-yl)phenyl)-6,6-dimethylbicyclo[3.1.1]hept-2-en-2-yl)methanol] | 74 | 112 | inverse agonist | 6740
CCCCCC(C(C)C)C(C)(C)c1cc(OC)c([C@H]2C=C(CO)[C@H]3C[C@@H]2C3(C)C)c(OC)c1 (stereo partly drawn) [Example 6, ((1S,4S,5S)-4-(4-(3-isopropyl-2-methyloctan-2-yl)-2,6-dimethoxyphenyl)-6,6-dimethylbicyclo[3.1.1]hept-2-en-2-yl)methanol] | 6.1 | – | antagonist | 7040
CCCCC[C@H](c1ccccc1)C(C)(C)c1cc(OC)c([C@H]2C=C(CO)[C@H]3C[C@@H]2C3(C)C)c(OC)c1 [Example 7, ((1S,4S,5S)-4-(2,6-dimethoxy-4-((R)-2-methyl-3-phenyloctan-2-yl)phenyl)-6,6-dimethylbicyclo[3.1.1]hept-2-en-2-yl)methanol] | 197 | 417 | inverse agonist | 1040
CCCCC[C@@H](c1ccccc1)C(C)(C)c1cc(OC)c([C@H]2C=C(CO)[C@H]3C[C@@H]2C3(C)C)c(OC)c1 [Example 8, ((1S,4S,5S)-4-(2,6-dimethoxy-4-((S)-2-methyl-3-phenyloctan-2-yl)phenyl)-6,6-dimethylbicyclo[3.1.1]hept-2-en-2-yl)methanol] | 4.5 | 302 | inverse agonist | 716
CCCCC[C@H](c1ccc(F)cc1)C(C)(C)c1cc(OC)c([C@H]2C=C(CO)[C@H]3C[C@@H]2C3(C)C)c(OC)c1 [Example 9, ((1S,4S,5S)-4-(4-((R)-3-(4-fluorophenyl)-2-methyloctan-2-yl)-2,6-dimethoxyphenyl)-6,6-dimethylbicyclo[3.1.1]hept-2-en-2-yl)methanol] | 1150 | – | antagonist | 1480
CCCCC[C@@H](c1ccc(F)cc1)C(C)(C)c1cc(OC)c([C@H]2C=C(CO)[C@H]3C[C@@H]2C3(C)C)c(OC)c1 [Example 10, ((1S,4S,5S)-4-(4-((S)-3-(4-fluorophenyl)-2-methyloctan-2-yl)-2,6-dimethoxyphenyl)-6,6-dimethylbicyclo[3.1.1]hept-2-en-2-yl)methanol] | 301 | – | antagonist | 1790
CCCCC[C@H](c1cccc(F)c1)C(C)(C)c1cc(OC)c([C@H]2C=C(CO)[C@H]3C[C@@H]2C3(C)C)c(OC)c1 [Example 11, ((1S,4S,5S)-4-(4-((R)-3-(3-fluorophenyl)-2-methyloctan-2-yl)-2,6-dimethoxyphenyl)-6,6-dimethylbicyclo[3.1.1]hept-2-en-2-yl)methanol] | 355 | 2340 | inverse agonist | 2690
CCCCC[C@@H](c1cccc(F)c1)C(C)(C)c1cc(OC)c([C@H]2C=C(CO)[C@H]3C[C@@H]2C3(C)C)c(OC)c1 [Example 12, ((1S,4S,5S)-4-(4-((S)-3-(3-fluorophenyl)-2-methyloctan-2-yl)-2,6-dimethoxyphenyl)-6,6-dimethylbicyclo[3.1.1]hept-2-en-2-yl)methanol] | 30 | 209 | inverse agonist | 1950
CCN(CC)c1ccc2cc(/C=C/c3ccc(S(=O)(=O)[O-])c[n+]3CCCCCC(=O)NCC3=C[C@H](c4c(OC)cc(C(C)(C)[C@H](CCCCCN=[N+]=[N-])c5ccccc5)cc4OC)[C@@H]4C[C@H]3C4(C)C)c(=O)oc2c1 [Example 22, 1-(6-((((1S,4S,5S)-4-(4-((R)-8-azido-2-methyl-3-phenyloctan-2-yl)-2,6-dimethoxyphenyl)-6,6-dimethylbicyclo[3.1.1]hept-2-en-2-yl)methyl)amino)-6-oxohexyl)-6-((E)-2-(7-(diethylamino)-2-oxo-2H-chromen-3-yl)vinyl)pyridin-1-ium-3-sulfonate] | 10.2 | 70.8 | inverse agonist | 1740
COc1cc(C(C)(C)[C@H](CCCCCN=[N+]=[N-])c2ccccc2)cc(OC)c1[C@H]1C=C(CNC(=O)CCCCCCNc2ccc([N+](=O)[O-])c3nonc23)[C@H]2C[C@@H]1C2(C)C [Example 24, N-(((1S,4S,5S)-4-(4-((R)-8-azido-2-methyl-3-phenyloctan-2-yl)-2,6-dimethoxyphenyl)-6,6-dimethylbicyclo[3.1.1]hept-2-en-2-yl)methyl)-7-((7-nitrobenzo [c][1,2,5]oxadiazol-4-yl)amino)heptanamide] | 12.3 | 1230 | inverse agonist | 840
